Results on 19 molecules are retold here after patent US9656945B2, “3-acyl-ingenols II” (LEO LABORATORIES LIMITED, priority 2010, dated 2017).

Holding throughout (assay type): cell-based
Test [1] relates to PMN's (polymorphonuclear leukocytes). As to the kind of experiment: Neutrophil oxidative burst assay. The note with it: Leukocyte, 40 min, read-out: Neutrophil oxidative burst Rel EC50 range. As for the experimental part: PMN's (polymorphonuclear leukocytes) were isolated and purified from fresh buffy coats by sequential sedimentation, density centrifugation and lysis of contaminating erythrocytes. Buffy coats were incubated with 2% methocel for 30-45 min to differentially sediment red blood cells. The leukocyte-rich supernatant was transferred to lymphoprep tubes to remove mononuclear cells by density centrifugation (400×g, 30 min). The pellet was resuspended and any remaining erythrocytes lysed using 0.2% NaCl for 30 sec before restoring isotonicity by the addition of 1.2% NaCl. This step was repeated until the cell pellet appears relatively free of red blood cells. Cells were resuspended in DPBS (Dulbecco's Phosphate Buffered Saline) (w.o. Ca^2+, Mg^2+) and the concentration adjusted to 1.4×10^6 cells/ml in HBSS (Hanks Balanced Salt solution) (w Ca^2+, Mg^2+) containing 0.1% BSA (Bovine Serum Albumin) and 5 mM glucose just prior to assay initiation. Titrated reference and test compounds were pre-mixed with HE (Hydroethidine) (10 μM final assay concentration) before addition to 96-well plates containing 2.5×10^5 cells. Following 40 min incubation at RT, changes in the respiratory burst was estimated by measuring fluorescence at 579 nm (excitation: 485 nm) using an Envision plate reader.
Test compound titration curves were fitted to a four-parameter sigmoidal curve after normalizing the effect of the test compound to the effect of the positive control (5×10^−7 M PEP0005). Rel EC50 denotes the concentration of test compound producing an effect that is midway between the fitted top and bottom. Abs EC50 is the concentration of test compound that provokes a response corresponding to 50% of the maximal effect associated with the positive control (5×10^−7 M PEP0005).

Test [2] has as its system Primary human epidermal keratinocytes, HeKa. As to the kind of experiment: HeKa cytokine release (IL-8) assay. The procedure:
Primary human epidermal keratinocytes, HeKa, were seeded (10.000 cells/well) in 96-well plates the day before the assay. Test compounds were diluted in DMSO (dimethyl sulfoxide) and further diluted in assay medium and pipetted into wells of 96 well-plates containing HeKa cells. The plates were incubated for 6 h at 37° C. in humidified air with 5% CO2. Plates are centrifuged briefly to spin down cells at 4° C., the supernatant was removed and analysed by Meso Scale Discovery (MSD) 4-spot cytokine assay (Pro-inflammatory II Ultra Sensitive kit, MSD, MD, USA). The MSD assay employs a sandwich immunoassay format where capture antibodies were coated in a patterned array on the bottom of the wells of a 4-Spot-Multi-MSD plate. Standard samples were incubated in the MULTI-SPOT plates as well, and the cytokine (IL-8) binds to its corresponding capture antibody spot. The cytokine level was quantitated on a SECTOR™ Imager using a cytokine-specific Detection Antibody labelled with MSD SULFO-TAG™ reagent.
Test compound titration curves were fitted to a four-parameter sigmoidal curve after normalizing the effect of the test compound to the effect of the positive control (1.5×10^−7 M PEP0005). Rel EC50 denotes the concentration of test compound producing an effect that is midway between the fitted top and bottom.

Test [3] deals with HeLa cells (ATCC CCL-002). The experiment in a line: Necrosis assay. The note with it: Homo sapiens, 0.5 h, read-out: HeLa necrosis EC50 range. The procedure:
HeLa cells (ATCC CCL-002) were grown in minimal essential medium (Invitrogen catalog no. 42360) containing 10% fetal bovine serum, 100 IU/ml penicillin and 100 μg/ml streptomycin. 4,000-6,000 cells were seeded into 96-well black ViewPlates-plates, clear bottom, (Perkin Elmer) in 100 μl medium and incubated overnight. Compounds were dissolved and pre-diluted in DMSO in 96-well polypropylene plates (Greiner) in a concentration range of 15 μM to 600 μM. At the time of the experiment cell plates were placed on heating blocks at 37° C., medium was removed and 40 μl fresh, pre-warmed medium was added per well. Cells were incubated for 15 min before addition of compounds. In parallel, 3 μl of compounds were diluted with 197 μl growth medium on a Tecan freedom-EVO pipetting station using 250 μl/s pipetting speed, in order to ensure effective mixing of the highly concentrated compound solutions with the aqueous phase. These pre-dilution plates were then equilibrated on heating blocks at 37° C. for 10 min. 80 μl pre-diluted compound were transferred manually to the corresponding wells containing HeLa cells yielding compound concentrations of 10 μM to 400 μM. Control conditions were 1% DMSO in growth medium (100% viability) and 400 μM ingenol mebutate in growth medium (0% viability). Plates were incubated on the heating blocks at 37° C. for 30 min. At the end of the incubation 10 μl PrestoBlue reagent (Invitrogen) were added to each well, plates were sealed with black seal, followed by incubation at 37° C. for 10 min with gentle shaking (150 rpm). Subsequently, plates were placed at room temperature for 20-30 min. Plates were read immediately after on an Envision Fluorescence reader (Perkin Elmer) with excitation at 535 nm and emission at 630 nm. Test compound titration curves were fitted to a four-parameter sigmoidal curve after normalizing the effect of the test compound to the effect of the positive control (4 10^−4 M PEP0005/ingenol mebutate). AbsEC50 denotes the concentration of test compound producing 50% effect.

[4] abbreviates: 6 h, read-out: HeKa cytokine release (IL-8) Rel EC50 range.

Where two headings read alike, the source gives them in different places. Some results are limits rather than exact numbers.

On to `CC1=C[C@]23C(=O)[C@@H](C=C(CO)[C@@H](O)[C@]2(O)[C@H]1OC(=O)C1(C#N)CCCCC1)[C@H]1[C@@H](C[C@H]3C)C1(C)C` [Compound 309, Ingenol 3-(1-cyano-cyclohexanecarboxylate)], for which the EC50 (usually the concentration needed to bring the measured effect to its halfway point) in test [1] is less than 20 nM.

Regarding `CC1=C[C@]23C(=O)[C@@H](C=C(CO)[C@@H](O)[C@]2(O)[C@H]1OC(=O)c1ccccc1N)[C@H]1[C@@H](C[C@H]3C)C1(C)C` [Compound 330, Ingenol 3-(2-amino-benzoate)], the EC50 was less than 20 nM in test [1] (40 min incubation at RT, normalized to positive control 5×10^−7 M PEP0005); less than 20 nM in test [2] (6 h at 37° C., normalized to positive control 1.5×10^−7 M PEP0005, read-out: HeKa cytokine release (IL-8) Rel EC50 range); 150000 to 350000 nM in test [3] (30 min at 37° C., PrestoBlue, normalized to 4 10^−4 M PEP0005/ingenol mebutate).

As to `CC1=C[C@]23C(=O)[C@@H](C=C(CO)[C@@H](O)[C@]2(O)[C@H]1OC(=O)c1c(C)cccc1O)[C@H]1[C@@H](C[C@H]3C)C1(C)C` [Compound 327, Ingenol 3-(2-hydroxy-6-methyl-benzoate)], the EC50 in test [1] was less than 20 nM; in test [3] it was 150000 to 350000 nM.

In the case of `COc1ccc(C(=O)O[C@H]2C(C)=C[C@]34C(=O)[C@@H](C=C(CO)[C@@H](O)[C@]23O)[C@H]2[C@@H](C[C@H]4C)C2(C)C)cc1` [Compound 313, Ingenol 3-(4-methoxy-benzoate)], the EC50 is less than 20 nM in test [1], less than 20 nM in test [2] (setting [4]) and less than 150000 nM in test [3].

On to `CC1=C[C@]23C(=O)[C@@H](C=C(CO)[C@@H](O)[C@]2(O)[C@H]1OC(=O)C1CCCC1)[C@H]1[C@@H](C[C@H]3C)C1(C)C` [Compound 304, Ingenol 3-(cyclopentanecarboxylate)], for which the results for the EC50 in test [1] and in test [2] (setting [4]) were less than 20 nM and 20 to 100 nM, respectively.

Turning to `COc1cccc(OC)c1C(=O)O[C@H]1C(C)=C[C@]23C(=O)[C@@H](C=C(CO)[C@@H](O)[C@]12O)[C@H]1[C@@H](C[C@H]3C)C1(C)C` [Compound 316, Ingenol 3-(2,6-dimethoxy-benzoate)], the results for the EC50 in test [1], in test [2] (setting [4]) and in test [3] were 20 to 100 nM, 20 to 100 nM and 150000 to 350000 nM, respectively.

As to `COc1cccc(N)c1C(=O)O[C@H]1C(C)=C[C@]23C(=O)[C@@H](C=C(CO)[C@@H](O)[C@]12O)[C@H]1[C@@H](C[C@H]3C)C1(C)C` [Compound 334, Ingenol 3-(2-amino-6-methoxy-benzoate)], the concentration giving a half-maximal response (EC50) in test [1] and in test [2] (setting [4]) was 20 to 100 nM in each case.

Consider `CC(=O)Nc1cccc(C)c1C(=O)O[C@H]1C(C)=C[C@]23C(=O)[C@@H](C=C(CO)[C@@H](O)[C@]12O)[C@H]1[C@@H](C[C@H]3C)C1(C)C` [Compound 337, Ingenol 3-(2-acetylamino-6-methyl-benzoate)], for which the EC50 in test [1] and in test [2] (setting [4]) was more than 100 nM each time.

For `CC1=C[C@]23C(=O)[C@@H](C=C(CO)[C@@H](O)[C@]2(O)[C@H]1OC(=O)C1CC1)[C@H]1[C@@H](C[C@H]3C)C1(C)C` [Compound 301, Ingenol 3-(cyclopropanecarboxylate)], the EC50 in test [1] was 20 to 100 nM; in test [2] (setting [4]), more than 100 nM.

For `C=CCOc1cccc(C)c1C(=O)O[C@H]1C(C)=C[C@]23C(=O)[C@@H](C=C(CO)[C@@H](O)[C@]12O)[C@H]1[C@@H](C[C@H]3C)C1(C)C` [Compound 326, Ingenol 3-(2-allyloxy-6-methyl-benzoate)], the EC50 in test [1] was less than 20 nM; in test [3] it was less than 150000 nM.

As to `CC1=C[C@]23C(=O)[C@@H](C=C(CO)[C@@H](O)[C@]2(O)[C@H]1OC(=O)C1=CCCCC1)[C@H]1[C@@H](C[C@H]3C)C1(C)C` [Compound 305, Ingenol 3-(cyclohexene-1-carboxylate)], the EC50 in test [1] and in test [2] (setting [4]) was less than 20 nM each time.

Regarding `CC1=C[C@]23C(=O)[C@@H](C=C(CO)[C@@H](O)[C@]2(O)[C@H]1OC(=O)c1c(C)cccc1Cl)[C@H]1[C@@H](C[C@H]3C)C1(C)C` [Compound 328, Ingenol 3-(2-chloro-6-methyl-benzoate)], the EC50 is less than 20 nM in test [1] and less than 150000 nM in test [3].

Take `CC1=C[C@]23C(=O)[C@@H](C=C(CO)[C@@H](O)[C@]2(O)[C@H]1OC(=O)c1c(C)cccc1NC(=O)C(C)C)[C@H]1[C@@H](C[C@H]3C)C1(C)C` [Compound 338, Ingenol 3-(2-methyl-6-(2-methylpropanoylamino)-benzoate)]: the EC50 in test [1] and in test [2] (setting [4]) was more than 100 nM each time.

Take `CC1=C[C@]23C(=O)[C@@H](C=C(CO)[C@@H](O)[C@]2(O)[C@H]1OC(=O)c1c(Cl)cccc1Cl)[C@H]1[C@@H](C[C@H]3C)C1(C)C` [Compound 317, Ingenol 3-(2,6-dichloro-benzoate)]: the EC50 in test [1] is 20 to 100 nM; in test [2] (setting [4]), less than 20 nM.

In the case of `CC1=C[C@]23C(=O)[C@@H](C=C(CO)[C@@H](O)[C@]2(O)[C@H]1OC(=O)c1ccccc1C)[C@H]1[C@@H](C[C@H]3C)C1(C)C` [Compound 310, Ingenol 3-(2-methyl-benzoate)], the EC50 in test [1] and in test [2] (setting [4]) was less than 20 nM in each case.

In the case of `CC1=C[C@]23C(=O)[C@@H](C=C(CO)[C@@H](O)[C@]2(O)[C@H]1OC(=O)C1C(C)(C)C1(C)C)[C@H]1[C@@H](C[C@H]3C)C1(C)C` [Compound 344, Ingenol 3-(2,2,3,3-tetramethylcyclopropylcarboxylate)], the EC50 in test [1] and in test [2] (setting [4]) was less than 20 nM each time.

For `CC1=C[C@]23C(=O)[C@@H](C=C(CO)[C@@H](O)[C@]2(O)[C@H]1OC(=O)c1c(Cl)cc(Cl)cc1Cl)[C@H]1[C@@H](C[C@H]3C)C1(C)C` [Compound 318, Ingenol 3-(2,4,6-trichloro-benzoate)], the EC50 in test [1] is 20 to 100 nM; in test [2] (setting [4]) it was less than 20 nM.

As to `COc1cc(C)c(C(=O)O[C@H]2C(C)=C[C@]34C(=O)[C@@H](C=C(CO)[C@@H](O)[C@]23O)[C@H]2[C@@H](C[C@H]4C)C2(C)C)c(OC)c1` [Compound 329, Ingenol 3-(2,4-dimethoxy-6-methyl-benzoate)], the EC50 in test [1] is less than 20 nM; in test [3], less than 150000 nM.

With `CC1=C[C@]23C(=O)[C@@H](C=C(CO)[C@@H](O)[C@]2(O)[C@H]1OC(=O)C1CCC1)[C@H]1[C@@H](C[C@H]3C)C1(C)C` [Compound 303, Ingenol 3-(cyclobutanecarboxylate)], the results for the EC50 in test [1] and in test [2] (setting [4]) were less than 20 nM and more than 100 nM, respectively.
